The values below come from patent US7943770B2, “Fused quinoline derivative and use thereof” (Takeda Pharmaceutical Company Limited, priority 2004, dated 2011).

pIC50: −log10 of the molar value.

One may read the pIC50 as the IC50 on a negative log10 scale, so that one unit is a factor of ten. High values mean a low IC50, low ones a high IC50.

The assay has as its target T1, hNK2 receptor (Homo sapiens, UniProt P21452).
T1 construct: host or cells: CHO cells
T1 sequence (P21452 1-398): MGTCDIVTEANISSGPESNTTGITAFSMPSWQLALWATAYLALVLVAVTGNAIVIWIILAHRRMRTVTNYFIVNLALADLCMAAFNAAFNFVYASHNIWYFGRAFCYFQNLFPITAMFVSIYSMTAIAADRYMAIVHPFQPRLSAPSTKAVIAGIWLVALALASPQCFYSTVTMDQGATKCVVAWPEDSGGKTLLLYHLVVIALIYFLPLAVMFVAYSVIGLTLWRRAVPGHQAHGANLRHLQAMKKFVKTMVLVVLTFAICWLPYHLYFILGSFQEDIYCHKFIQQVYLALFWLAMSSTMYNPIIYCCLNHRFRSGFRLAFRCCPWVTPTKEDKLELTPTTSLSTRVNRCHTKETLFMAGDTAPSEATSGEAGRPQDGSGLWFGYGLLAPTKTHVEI
Kind of assay: Radio-ligand ([125I]-NKA) receptor binding inhibitory activity using membrane fraction of hNK2 receptor-expressing CHO cell. The conditions noted are these: membrane fraction of hNK2 receptor-expressing CHO cells, 25° C., 30 min. A digest of the protocol: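 Inhibition of [125I]-NKA binding ([…] solution added) measured after 30 min at 25 °C using hNK2-CHO membrane fraction (20 μg/mL suspension) in pH 7.4 Tris buffer containing MnCl2, BSA and protease inhibitors. Filter-bound counts read; activity calculated as fraction of specific binding, non-specific defined with unlabeled NKA.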
`COc1ccc(NC(=O)N[C@@H]2CCCC[C@@H]2C(=O)N2CC[C@@H]3[C@H](C4CC4)Nc4ccccc4[C@@H]32)cc1` [Example 184, N-((1R,2S)-2-{[(3aR,4S,9bR)-4-Cyclopropyl-2,3,3a,4,5,9b-hexahydro-1H-pyrrolo[3,2-c]quinolin-1-yl]carbonyl}cyclohexyl)-N′-(4-methoxyphenyl)urea] had a pIC50 greater than 9.00.

Take `CCNC(=O)N[C@@H]1CCCC[C@@H]1C(=O)N1CC[C@@H]2[C@H](C3CC3)Nc3ccccc3[C@@H]21` [Example 185, N-((1R,2S)-2-{[(3aR,4S,9bR)-4-Cyclopropyl-2,3,3a,4,5,9b-hexahydro-1H-pyrrolo[3,2-c]quinolin-1-yl]carbonyl}cyclohexyl)-N′-ethylurea]: the pIC50 was greater than 8.00.

The compound `O=C(Nc1ccccc1)N[C@@H]1CCCC[C@@H]1C(=O)N1CC[C@@H]2[C@H](c3ccsc3)Nc3ccccc3[C@@H]21` [Example 186, N-Phenyl-N′-((1R,2S)-2-{[(3aR,4R,9bR)-4-(3-thienyl)-2,3,3a,4,5,9b-hexahydro-1H-pyrrolo[3,2-c]quinolin-1-yl]carbonyl}cyclohexyl)urea] gave a pIC50 greater than 9.00.

In turn, `CCNC(=O)N[C@@H]1CCCC[C@@H]1C(=O)N1CC[C@@H]2[C@H](c3ccsc3)Nc3ccccc3[C@@H]21` [Example 187, N-Ethyl-N′-((1R,2S)-2-{[(3aR,4R,9bR)-4-(3-thienyl)-2,3,3a,4,5,9b-hexahydro-1H-pyrrolo[3,2-c]quinolin-1-yl]carbonyl}cyclohexyl)urea] gave a negative logarithm of the IC50 (pIC50) greater than 9.00.

`CCCCNC(=O)N[C@@H]1CCCC[C@@H]1C(=O)N1CC[C@@H]2[C@H](c3ccsc3)Nc3ccccc3[C@@H]21` [Example 188, N-Butyl-N′-((1R,2S)-2-{[(3aR,4R,9bR)-4-(3-thienyl)-2,3,3a,4,5,9b-hexahydro-1H-pyrrolo[3,2-c]quinolin-1-yl]carbonyl}cyclohexyl)urea] showed a pIC50 greater than 9.00.

For `O=C(N[C@@H]1CCCC[C@@H]1C(=O)N1CC[C@@H]2[C@H](c3ccsc3)Nc3ccccc3[C@@H]21)c1ccc2[nH]nnc2c1` [Example 189, N-((1R,2S)-2-{[(3aR,4R,9bR)-4-(3-Thienyl)-2,3,3a,4,5,9b-hexahydro-1H-pyrrolo[3,2-c]quinolin-1-yl]carbonyl}cyclohexyl)-1H-1,2,3-benzotriazole-5-carboxamide], the pIC50 was greater than 9.00.

The compound `NC(=O)c1ccc(C(=O)N[C@@H]2CCCC[C@@H]2C(=O)N2CC[C@@H]3[C@H](c4ccsc4)Nc4ccccc4[C@@H]32)cc1` [Example 190, N-((1R,2S)-2-{[(3aR,4R,9bR)-4-(3-Thienyl)-2,3,3a,4,5,9b-hexahydro-1H-pyrrolo[3,2-c]quinolin-1-yl]carbonyl}cyclohexyl)terephthalamide] showed a pIC50 greater than 9.00.

As to `Cc1cc(C(=O)N[C@@H]2CCCC[C@@H]2C(=O)N2CC[C@@H]3[C@H](c4ccsc4)Nc4ccccc4[C@@H]32)ccc1C(N)=O` [Example 191, 2-Methyl-N^4-((1R,2S)-2-{[(3aR,4R,9bR)-4-(3-thienyl)-2,3,3a,4,5,9b-hexahydro-1H-pyrrolo[3,2-c]quinolin-1-yl]carbonyl}cyclohexyl)terephthalamide], the pIC50 is greater than 9.00.

With `Cc1nc2cc(C(=O)N[C@@H]3CCCC[C@@H]3C(=O)N3CC[C@@H]4[C@H](c5ccsc5)Nc5ccccc5[C@@H]43)ccc2[nH]1` [Example 192, 2-Methyl-N-((1R,2S)-2-{[(3aR,4R,9bR)-4-(3-thienyl)-2,3,3a,4,5,9b-hexahydro-1H-pyrrolo[3,2-c]quinolin-1-yl]carbonyl}cyclohexyl)-1H-benzimidazole-5-carboxamide], the pIC50 is greater than 9.00.

The compound `C[C@]12CCN(C(=O)[C@H]3CCCC[C@H]3NC(=O)c3ccccc3)[C@H]1c1ccccc1N[C@H]2c1ccsc1` [Example 193, N-((1R,2S)-2-{[(3aR,4R,9bR)-3a-Methyl-4-(3-thienyl)-2,3,3a,4,5,9b-hexahydro-1H-pyrrolo[3,2-c]quinolin-1-yl]carbonyl}cyclohexyl)benzamide] had a pIC50 greater than 9.00.

Turning to `CCC[C@@H]1Nc2ccccc2[C@H]2[C@@H]1CCN2C(=O)[C@H]1CCCC[C@H]1NC(=O)c1ccc(OC)cc1` [Example 194, 4-Methoxy-N-((1R,2S)-2-{[(3aR,4S,9bR)-4-propyl-2,3,3a,4,5,9b-hexahydro-1H-pyrrolo[3,2-c]quinolin-1-yl]carbonyl}cyclohexyl)benzamide], the pIC50 was greater than 9.00.

Compound `CCC[C@@H]1Nc2ccccc2[C@H]2[C@@H]1CCN2C(=O)[C@H]1CCCC[C@H]1NC(=O)Nc1ccccc1` [Example 195, N-Phenyl-N′-((1R,2S)-2-{[(3aR,4S,9bR)-4-propyl-2,3,3a,4,5,9b-hexahydro-1H-pyrrolo[3,2-c]quinolin-1-yl]carbonyl}cyclohexyl)urea] gave a negative-log IC50 (pIC50) greater than 9.00.

`CCC[C@@H]1Nc2ccccc2[C@H]2[C@@H]1CCN2C(=O)[C@H]1CCCC[C@H]1NC(=O)Nc1ccc(OC)cc1` [Example 196, N-(4-Methoxyphenyl)-N′-((1R,2S)-2-{[(3aR,4S,9bR)-4-propyl-2,3,3a,4,5,9b-hexahydro-1H-pyrrolo[3,2-c]quinolin-1-yl]carbonyl}cyclohexyl)urea] had a pIC50 greater than 9.00.

Turning to `CCC[C@@H]1Nc2ccccc2[C@H]2[C@@H]1CCN2C(=O)[C@H]1CCCC[C@H]1NC(=O)Nc1ccc(F)cc1` [Example 197, N-(4-Fluorophenyl)-N′-((1R,2S)-2-{[(3aR,4S,9bR)-4-propyl-2,3,3a,4,5,9b-hexahydro-1H-pyrrolo[3,2-c]quinolin-1-yl]carbonyl}cyclohexyl)urea], the pIC50 is greater than 9.00.

The compound `CCC[C@@H]1Nc2ccccc2[C@H]2[C@@H]1CCN2C(=O)[C@H]1CCCC[C@H]1NC(=O)NCC` [Example 198, N-Ethyl-N′-((1R,2S)-2-{[(3aR,4S,9bR)-4-propyl-2,3,3a,4,5,9b-hexahydro-1H-pyrrolo[3,2-c]quinolin-1-yl]carbonyl}cyclohexyl)urea] had a pIC50 greater than 8.00.

In turn, `CCCCNC(=O)N[C@@H]1CCCC[C@@H]1C(=O)N1CC[C@@H]2[C@H](CCC)Nc3ccccc3[C@@H]21` [Example 199, N-Butyl-N′-((1R,2S)-2-{[(3aR,4S,9bR)-4-propyl-2,3,3a,4,5,9b-hexahydro-1H-pyrrolo[3,2-c]quinolin-1-yl]carbonyl}cyclohexyl)urea] had a pIC50 greater than 8.00.

Compound `CCC[C@@H]1Nc2ccccc2[C@H]2[C@@H]1CCN2C(=O)[C@H]1CCCC[C@H]1NC(=O)Nc1ccc2c(c1)OCO2` [Example 200, N-1,3-Benzodioxol-5-yl-N′-((1R,2S)-2-{[(3aR,4S,9bR)-4-propyl-2,3,3a,4,5,9b-hexahydro-1H-pyrrolo[3,2-c]quinolin-1-yl]carbonyl}cyclohexyl)urea] had a negative-log IC50 (pIC50) greater than 9.00.

`CCC[C@@H]1Nc2ccccc2[C@H]2[C@@H]1CCN2C(=O)[C@H]1CCCC[C@H]1NC(=O)c1ccc2[nH]c(C)nc2c1` [Example 201, 2-methyl-N-((1R,2S)-2-{[(3aR,4S,9bR)-4-propyl-2,3,3a,4,5,9b-hexahydro-1H-pyrrolo[3,2-c]quinolin-1-yl]carbonyl}cyclohexyl)-1H-benzimidazole-5-carboxamide] had a pIC50 greater than 9.00.

Take `CCC[C@@H]1Nc2ccccc2[C@H]2[C@@H]1CCN2C(=O)[C@H]1CCCC[C@H]1NC(=O)c1ccc(C#N)cc1` [Example 202, 4-Cyano-N-((1R,2S)-2-{[(3aR,4S,9bR)-4-propyl-2,3,3a,4,5,9b-hexahydro-1H-pyrrolo[3,2-c]quinolin-1-yl]carbonyl}cyclohexyl)benzamide]: the negative-log IC50 (pIC50) was greater than 9.00.

`COC[C@@H]1Nc2ccccc2[C@H]2[C@@H]1CCN2C(=O)[C@H]1CCCC[C@H]1NC(=O)Nc1ccccc1` [Example 204, N-((1R,2S)-2-{[(3aR,4R,9bR)-4-(Methoxymethyl)-2,3,3a,4,5,9b-hexahydro-1H-pyrrolo[3,2-c]quinolin-1-yl]carbonyl}cyclohexyl)-N′-phenylurea] gave a negative-log IC50 (pIC50) greater than 9.00.

`COC[C@@H]1Nc2ccccc2[C@H]2[C@@H]1CCN2C(=O)[C@H]1CCCC[C@H]1NC(=O)Nc1ccc(F)cc1` [Example 205, N-(4-Fluorophenyl)-N′-((1R,2S)-2-{[(3aR,4R,9bR)-4-(methoxymethyl)-2,3,3a,4,5,9b-hexahydro-1H-pyrrolo[3,2-c]quinolin-1-yl]carbonyl}cyclohexyl)urea]: the pIC50 is greater than 9.00.

`COC[C@@H]1Nc2ccccc2[C@H]2[C@@H]1CCN2C(=O)[C@H]1CCCC[C@H]1NC(=O)Nc1ccc(OC)cc1` [Example 206, N-((1R,2S)-2-{[(3aR,4R,9bR)-4-(Methoxymethyl)-2,3,3a,4,5,9b-hexahydro-1H-pyrrolo[3,2-c]quinolin-1-yl]carbonyl}cyclohexyl)-N′-(4-methoxyphenyl)urea] had a pIC50 greater than 9.00.

`COC[C@@H]1Nc2ccccc2[C@H]2[C@@H]1CCN2C(=O)[C@H]1CCCC[C@H]1NC(=O)Nc1ccc2c(c1)OCO2` [Example 208, N-1,3-Benzodioxol-5-yl-N′-((1R,2S)-2-{[(3aR,4R,9bR)-4-(methoxymethyl)-2,3,3a,4,5,9b-hexahydro-1H-pyrrolo[3,2-c]quinolin-1-yl]carbonyl}cyclohexyl)urea] had a pIC50 greater than 9.00.

`COC[C@@H]1Nc2ccccc2[C@H]2[C@@H]1CCN2C(=O)[C@H]1CCCC[C@H]1NC(=O)/C=C/c1ccc(C(F)(F)F)cc1` [Example 209] had a pIC50 greater than 9.00.
